# Like-named read-outs stand apart in the source and are kept apart here.
# What was measured:
# [1] = tested on: HORSS: barley, including spring and winter (Hordeum vulgare); assay: Post-emergent Test III, herbicidal activity in wheat and barley; format: in vivo; details: Table 9, 21 d
# Method: (§1) Post-emergent Test III. Seeds of the desired test plant species were planted in Sun Gro MetroMix® 306 planting mixture, which typically has a pH of 6.0 to 6.8 and an organic matter content of about 30 percent, in plastic pots with a surface area of 103.2 square centimeters (cm^2). When required to ensure good germination and healthy plants, a fungicide treatment and/or other chemical or physical treatment was applied. The plants were grown for 7-36 days (d) in a greenhouse with an approximate 14 hour (h) photoperiod which was maintained at about 18° C. during the day and 17° C. during the night. Nutrients and water were added on a regular basis and supplemental lighting was provided with overhead metal halide 1000-Watt lamps as necessary. The plants were employed for testing when they reached the second or third true leaf stage.
# (§2) A weighed amount, determined by the highest rate to be tested, of each test compound was placed in a 25 mL glass vial and was dissolved in 4 mL of a 97:3 v/v mixture of acetone and DMSO to obtain concentrated stock solutions. […] The concentrated stock solutions obtained were diluted with 20 mL of an aqueous mixture containing acetone, water, isopropyl alcohol, DMSO, Agri-Dex crop oil concentrate, and X-77 surfactant in a 48:39:10:1.5:1.5:0.02 v/v ratio to obtain spray solutions containing the highest application rates. Additional application rates were obtained by serial dilution of 12 mL of the high rate solution into a solution containing 2 mL of 97:3 v/v mixture of acetone and DMSO and 10 mL of an aqueous mixture containing acetone, water, isopropyl alcohol, DMSO, Agri-Dex crop oil concentrate, and X-77 surfactant in a 48:39:10:1.5:1.5:0.02 v/v ratio to obtain ½×, ¼×, ⅛× and 1/16× rates of the high rate. Compound requirements are based upon a 12 mL application volume at a rate of 187 liters per hectare (L/ha). Formulated compounds were applied to the plant material with an overhead Mandel track sprayer equipped with 8002E nozzles calibrated to deliver 187 L/ha over an application area of 0.503 square meters at a spray height of 18 inches (43 cm) above the average plant canopy height. Control plants were sprayed in the same manner with the solvent blank.
# (§3) The treated plants and control plants were placed in a greenhouse as described above and watered by subirrigation to prevent wash-off of the test compounds. After 21 d, the condition of the test plants as compared with that of the untreated plants was determined visually and scored on a scale of 0 to 100 percent where 0 corresponds to no injury and 100 corresponds to complete kill.
# (§4) By applying the well-accepted probit analysis as described by J. Berkson in Journal of the American Statistical Society, 48, 565 (1953) and by D. Finney in “Probit Analysis” Cambridge University Press (1952), herbicidal injury of a specific compound at various rates can be used to calculate GR20, GR50, GR80 and GR90 values, which are defined as growth reduction factors that correspond to the effective dose of herbicide required to provide plant growth reduction (GR) of 20 percent, 50 percent, 80 percent and 90 percent, respectively. Probit analysis was applied to data collected from multiple dose rates of individual compounds utilizing the procedures explained in the following examples. The analysis of those dose rates is captured in the following tables.
# [2] = tested on: TRZSS: wheat, including spring and winter (Triticum aestivum); assay: as above; format: in vivo; details: Table 9, 21 d
# Method: as §1, §2, §3, §4
# [3] = as above; format: in vivo, Lolium multiflorum, Lolium rigidum; details: Lolium multiflorum, post-emergence, 504 h, read-out: Visual Growth Reduction (%) 21 Days After Application LOLSS; for pest or weed control at 35 g/ha: 35 g ai/ha; for pest or weed control at 70 g/ha: 70 g ai/ha; for pest or weed control at 140 g/ha: 140 g ai/ha
# Method: as §1, §2, §3, §4
# [4] = tested on: SETVI: green foxtail (Setaria viridis); assay: as above; format: in vivo; details: Table 9, 21 d
# Method: as §1, §2, §3, §4
# [5] = tested on: LOLSS: ryegrass including, Italian ryegrass (Lolium multiflorum), rigid ryegrass (Lolium rigidum), annual ryegrass (Lolium multiflorum subsp. Gaudini); assay: as above; format: in vivo; details: probit analysis
# Method: as §1, §2, §3, §4
# [6] = tested on: APESV: bentgrass (Apera spica-venti); assay: as above; format: in vivo; details: for pest or weed control at 35 g/ha / pest or weed control at 70 g/ha / pest or weed control at 140 g/ha: Apera spica-venti, post-emergence, 504 h, read-out: Visual Growth Reduction (%) 21 Days After Application APESV; for pest or weed control at 35 g/ha: 35 g ai/ha; for pest or weed control at 70 g/ha: 70 g ai/ha; for GR50 APESV / GR80 APESV: probit analysis; for pest or weed control at 140 g/ha: 140 g ai/ha
# Method: as §1, §2, §3, §4
# [7] = tested on: KCHSC: kochia (Kochia scoparia); assay: as above; format: in vivo; details: for pest or weed control at 35 g/ha / pest or weed control at 70 g/ha / pest or weed control at 140 g/ha: Bassia scoparia, post-emergence, 504 h, read-out: Visual Growth Reduction (%) 21 Days After Application KCHSC; for pest or weed control at 35 g/ha: 35 g ai/ha; for pest or weed control at 70 g/ha: 70 g ai/ha; for GR50 KCHSC / GR80 KCHSC: probit analysis; for pest or weed control at 140 g/ha: 140 g ai/ha
# Method: as §1, §2, §3, §4
# [8] = tested on: MATSS: scented mayweed (Matricaria chamomilla), pineappleweed (Matricaria matricarioides); assay: as above; format: in vivo; details: for pest or weed control at 35 g/ha / pest or weed control at 70 g/ha / pest or weed control at 140 g/ha: Matricaria chamomilla, post-emergence, 504 h, read-out: Visual Growth Reduction (%) 21 Days After Application MATSS; for pest or weed control at 35 g/ha: 35 g ai/ha; for pest or weed control at 70 g/ha: 70 g ai/ha; for GR50 MATSS / GR80 MATSS: probit analysis, 21 days after application; for GR50 MATSS: dose for growth reduction of 50 percent; for GR80 MATSS: dose for growth reduction of 80 percent; for pest or weed control at 140 g/ha: 140 g ai/ha
# Method: as §1, §2, §3, §4
# [9] = dose for 20 percent growth reduction, probit analysis
# [10] = Table 9, dose for 50 percent growth reduction, 21 d
# [11] = Table 9, dose for 80 percent growth reduction, 21 d
# [12] = dose for growth reduction of 50 percent, 21 days after application
# [13] = dose for growth reduction of 80 percent, 21 days after application
structure (smiles),measurement,setting,value
C#Cc1ccc(-c2nc(C(=O)O)c(C=C)c(N)c2F)cc1 [Compound 36],pest or weed control at 35 g/ha,"[1]; Hordeum vulgare, post-emergence, 504 h, 35 g ai/ha, post-emergent, read-out: Visual Growth Reduction (%) 21 Days After Application HORSS",30 to 44%
same,pest or weed control at 70 g/ha,"[1]; Hordeum vulgare, post-emergence, 504 h, 70 g ai/ha, post-emergent, read-out: Visual Growth Reduction (%) 21 Days After Application HORSS",60 to 74%
same,GR20 HORSS,[1]; [9],16 g ai/ha
same,GR20 TRZSS,[2]; [9],1 g ai/ha
same,pest or weed control at 35 g/ha,"[2]; Triticum aestivum, post-emergence, 504 h, 35 g ai/ha, post-emergent, read-out: Visual Growth Reduction (%) 21 Days After Application TRZSS",75 to 84%
same,pest or weed control at 70 g/ha,"[2]; Triticum aestivum, post-emergence, 504 h, 70 g ai/ha, post-emergent, read-out: Visual Growth Reduction (%) 21 Days After Application TRZSS",75 to 84%
same,pest or weed control at 35 g/ha,"[3]; Table 9, post-emergent, 21 d",0 to 29%
same,pest or weed control at 70 g/ha,"[3]; Table 9, post-emergent, 21 d",0 to 29%
same,pest or weed control at 35 g/ha,"[4]; Setaria viridis, post-emergence, 504 h, 35 g ai/ha, post-emergent, read-out: Visual Growth Reduction (%) 21 Days After Application SETVI",0 to 29%
same,pest or weed control at 70 g/ha,"[4]; Setaria viridis, post-emergence, 504 h, 70 g ai/ha, post-emergent, read-out: Visual Growth Reduction (%) 21 Days After Application SETVI",30 to 44%
same,GR50 SETVI,"[4]; dose for 50 percent growth reduction, probit analysis",126 g ai/ha
same,GR80 SETVI,"[4]; dose for 80 percent growth reduction, probit analysis",>140 g ai/ha
same,GR50 LOLSS,[5]; [10],>140 g ai/ha
same,GR80 LOLSS,[5]; [11],>140 g ai/ha
same,pest or weed control at 35 g/ha,"[6]; Table 9, post-emergent, 21 d",0 to 29%
same,pest or weed control at 70 g/ha,"[6]; Table 9, post-emergent, 21 d",0 to 29%
same,GR50 APESV,[6]; [10],>140 g ai/ha
same,GR80 APESV,[6]; [11],>140 g ai/ha
same,pest or weed control at 35 g/ha,"[7]; Table 9, post-emergent, 21 d",0 to 29%
same,pest or weed control at 70 g/ha,"[7]; Table 9, post-emergent, 21 d",0 to 29%
same,GR50 KCHSC,[7]; [10],>140 g ai/ha
same,GR80 KCHSC,[7]; [11],>140 g ai/ha
"COC(=O)c1nc(-c2ccc(Br)c(F)c2F)c(F)c(N)c1Cl [Compound 109, methyl 4-amino-6-(4-bromo-2,3-difluorophenyl)-3-chloro-5-fluoropicolinate]",pest or weed control at 35 g/ha,[3],45 to 59%
same,pest or weed control at 70 g/ha,[3],45 to 59%
same,GR50 LOLSS,[5]; [12],34 g ai/ha
same,GR80 LOLSS,[5]; [13],>140 g ai/ha
same,pest or weed control at 35 g/ha,[8],30 to 44%
same,pest or weed control at 70 g/ha,[8],45 to 59%
same,GR50 MATSS,[8],72 g ai/ha
same,GR80 MATSS,[8],>140 g ai/ha
same,pest or weed control at 35 g/ha,[6],85 to 94%
same,pest or weed control at 70 g/ha,[6],85 to 94%
same,GR50 APESV,[6]; [12],1 g ai/ha
same,GR80 APESV,[6]; [13],6 g ai/ha
same,pest or weed control at 35 g/ha,[7],85 to 94%
same,pest or weed control at 70 g/ha,[7],85 to 94%
same,GR50 KCHSC,[7]; [12],3 g ai/ha
same,GR80 KCHSC,[7]; [13],19 g ai/ha
Nc1c(F)c(-c2ccc(Br)c(F)c2F)nc(C(=O)O)c1Cl [Compound 147],pest or weed control at 35 g/ha,[3],30 to 44%
same,pest or weed control at 70 g/ha,[3],45 to 59%
same,pest or weed control at 140 g/ha,[3],60 to 74%
same,GR50 LOLSS,[5]; [12],71 g ai/ha
same,GR80 LOLSS,[5]; [13],>140 g ai/ha
same,pest or weed control at 35 g/ha,[8],95 to 100%
same,pest or weed control at 70 g/ha,[8],95 to 100%
same,pest or weed control at 140 g/ha,[8],95 to 100%
same,GR50 MATSS,[8],6 g ai/ha
same,GR80 MATSS,[8],14 g ai/ha
same,pest or weed control at 35 g/ha,[6],85 to 94%
same,pest or weed control at 70 g/ha,[6],85 to 94%
same,pest or weed control at 140 g/ha,[6],85 to 94%
same,GR50 APESV,[6]; [12],5 g ai/ha
same,GR80 APESV,[6]; [13],16 g ai/ha
same,pest or weed control at 35 g/ha,[7],85 to 94%
same,pest or weed control at 70 g/ha,[7],95 to 100%
same,pest or weed control at 140 g/ha,[7],85 to 94%
same,GR50 KCHSC,[7]; [12],4 g ai/ha
same,GR80 KCHSC,[7]; [13],19 g ai/ha
COC(=O)c1nc(-c2ccc(C(F)F)cc2)c(F)c(N)c1Cl [Compound 209],pest or weed control at 35 g/ha,[3],0 to 29%
same,pest or weed control at 70 g/ha,[3],30 to 44%
same,GR50 LOLSS,[5]; [12],93 g ai/ha
same,GR80 LOLSS,[5]; [13],>140 g ai/ha
same,pest or weed control at 35 g/ha,[8],0 to 29%
same,pest or weed control at 70 g/ha,[8],0 to 29%
same,GR50 MATSS,[8],>140 g ai/ha
same,GR80 MATSS,[8],>140 g ai/ha
same,pest or weed control at 35 g/ha,[6],0 to 29%
same,pest or weed control at 70 g/ha,[6],0 to 29%
same,GR50 APESV,[6]; [12],>140 g ai/ha
same,GR80 APESV,[6]; [13],>140 g ai/ha
same,pest or weed control at 35 g/ha,[7],60 to 74%
same,pest or weed control at 70 g/ha,[7],85 to 94%
same,GR50 KCHSC,[7]; [12],12 g ai/ha
same,GR80 KCHSC,[7]; [13],42 g ai/ha
C=Cc1c(C(=O)O)nc(-c2ccc(Cl)c(F)c2)c(F)c1N [Compound 214],pest or weed control at 35 g/ha,[3],30 to 44%
same,pest or weed control at 70 g/ha,[3],45 to 59%
same,pest or weed control at 140 g/ha,[3],85 to 94%
same,GR50 LOLSS,[5]; [12],59 g ai/ha
same,GR80 LOLSS,[5]; [13],>140 g ai/ha
same,pest or weed control at 35 g/ha,[8],75 to 84%
same,pest or weed control at 70 g/ha,[8],85 to 94%
same,pest or weed control at 140 g/ha,[8],85 to 94%
same,GR50 MATSS,[8],4 g ai/ha
same,GR80 MATSS,[8],41 g ai/ha
same,pest or weed control at 35 g/ha,[6],0 to 29%
same,pest or weed control at 70 g/ha,[6],30 to 44%
same,pest or weed control at 140 g/ha,[6],45 to 59%
same,GR50 APESV,[6]; [12],110 g ai/ha
same,GR80 APESV,[6]; [13],>140 g ai/ha
same,pest or weed control at 35 g/ha,[7],75 to 84%
same,pest or weed control at 70 g/ha,[7],85 to 94%
same,pest or weed control at 140 g/ha,[7],95 to 100%
same,GR50 KCHSC,[7]; [12],7 g ai/ha
same,GR80 KCHSC,[7]; [13],52 g ai/ha

# — patent US9113629B2, “4-amino-6-(4-substituted-phenyl)-picolinates and 6-amino-2-(4-substituted-phenyl)-pyrimidine-4-carboxylates and their use as herbicides” (DOW AGROSCIENCES LLC, priority 2013, dated 2015)
